# US20140186329A1, “POLYPHENOL ANALOGS TO TREAT ISCHEMIA” (priority 2011, published 2014)
# What was measured:
# [1] = test system: primary mouse cortical neurons; assay: Primary cortical cell glutamate excitotoxicity assay; assay type: cell-based; settings: for Primary Cortical Cell assay-Glutamate (% protection @ 100 nM) / % protection against glutamate excitotoxicity at 0.1 µM: 10 μM glutamate, compound 100 nM; for % protection against glutamate excitotoxicity at 0.1 µM: Mus musculus, Cortical neurone
# Method: (§1) FIG. 5 illustrates pharmacological effects of Baicalein on cultured cells. (A) Trophic factor withdrawal. Primary cortical neurons are prepared from 18-day-old rat embryos, and cultured at low cell density 1×10^6/35 mm dish, in serum containing medium with Baicalein (10-10,000 nM), and viability assayed 2 days later using a live-dead assay. (B) Excitotoxicity assay was done with E14 mouse primary cortical neuron cultures. After 11 days of culture, cells were exposed to 10 μM glutamate for 10 min, followed by the addition of varying concentrations of Baicalein (0.2-5 μM). Cell viability was determined 24 hr later with a standard MTT assay. (C) PC12 cells were glucose-deprived then were incubates in the absence or presence of Baicalein. Cell viability was determined 24 hr later using the MTT assay. (D) RCG-5 nerve cells were treated with 30 μM iodoacetic acid for 2 hr in the presence or absence of 5-25 μM Baicalein. In some experiments, Baicalein was added 2 hr after the ischemic event. Cell survival (%) was measured after 24 hr by the MTT assay. Baicalein added before (□) or 2 hr after ([…]) ischemia.
# Primary cultures of cortical neurons that die due to excitotoxicity were prepared as described previously. Briefly, BALB/c mouse embryo cortices were minced and treated with 0.1% trypsin for 20 min. After centrifugation, the cells are resuspended in 827 Neurobasal medium (Invitrogen) plus 10% fetal calf serum and are dissociated by repeated pipetting through a 1 mL blue Eppendorf pipette tip. Then the cells are plated at 1×10^5 cells per well in 96-well poly-L-lysine and laminin-coated microtiter plates (Becton Dickinson, Bedford, Mass., USA) in 827 Neurobasal plus 10% fetal calf serum and 20% glial growth-conditioned medium. Two days later the medium is aspirated and replaced by serum-free 827 Neurobasal medium plus 10 μg/mL cytosine arabinoside. The cultures are used without media change 11 days after plating and are essentially free of astrocytes. They are exposed to 10 μM glutamate followed by varying concentrations of the compounds. Cell viability is determined 24 h later using the fluorescent live/dead assay. Glial conditioned medium is prepared from confluent rat astrocyte cultures. The cells are washed twice with serum-free medium and incubated for 2 days in serum-free Neurobasal medium to produce the growth conditioned medium.
# (1) ≧80% cell survival in mouse HT22 hippocampal cells in the presence of 20 μM iodoacetic acid (IAA) (in vitro ischemia model). See, Maher, et al., Brain Res. 2007, 1173:117-25. (2) ≧35% cell survival in primary mouse cortical neurons in the presence of 10 μM glutamate (in vitro excitotoxicity assay). See, Ishige, et al., Free Radic Biol Med, 2001, 30(4): p. 433-46.
# [2] = test system: embolic strokes in rabbits; assay: Rabbit small clot embolic stroke model (RSCEM); assay type: in vivo; settings: for therapeutic window in the RSCEM: time post-embolization
# From the text: The ability of polyphenol analogs to treat, prevent and/or mitigate one or more symptoms of stroke can also be evaluated in in vivo assays. Such assays are known in the art and find use. One applicable in vivo screening assay is the rabbit clot embolic stroke model, discussed, e.g., in Lapchak, et al., Stroke (2002) 33(9):2279-84 and Lapchak, Exp Neurol. (2007) 205(2):407-13. The rabbit small clot embolic stroke model (RSCEM) and rabbit large clot embolic stroke model (RLCEM) can be used to determine the potential neuroprotective properties and safety profile of test polyphenol analogs after an embolic stroke. Rabbits are embolized by injecting small blood clots (RSCEM) or large blood clots (RLCEM) into the cerebral circulation. Behavioral analysis is conducted 24 hours later, allowing for determination of the effective stroke dose (ES50) or clot amount (milligrams) that produces severe neurological deficits in 50% of rabbits. A drug is considered neuroprotective if it increases the ES50 compared with the vehicle-treated control group.
# Behavioral analysis was conducted at 24 hours following treatment, which allowed for the construction of quantal dose-response analysis curves. […] For the superimposed graphs, normal animals are plotted on the y-axis at 0% and abnormal animals are plotted at 100%. […] Moreover, CGA increased the P50 value (the clot dose that produces abnormality in 50% of a treatment group) compared to vehicle control. For a detailed discussion of the methods used to fit the quantal data to a sigmoidal curve, see Zivin and Waud. The pharmacology of chlorogenic acid in the rabbit small clot embolic stroke model (RSCEM) has been published (Lapchak, Exp Neurol. 2007 205(2):407-13). In the manuscript, it is shown that CGA has a therapeutic window of 60 minutes in the RSCEM. FIG. 2 presents the therapeutic window data.
# primary cortical neurons = assay: Trophic factor withdrawal; assay type: cell-based, rat; settings: serum-containing medium, 10-10,000 nM, 2 days
# Method: as §1, with “ischemia. […] These include trophic factor withdrawal (TFW), excitotoxicity, glucose starvation, and most importantly, in a chemical ischemia model. […] (FIG. 5A). Using a published excitotoxicity assay, Baicalein rescues about 35% of the cells (FIG. 5B).” for “ischemia.”
# [3] = cell based assays (not specified)
# [4] = administered 1 hour following embolization
# [5] = administered 3 hours following embolization
# [6] = 50 mg/kg intravenously, 5 minutes following embolization, behavior at 24 hours
smiles,measurement,setting,value
"CC(C)Oc1cc(-c2ccc(O)c(O)c2)nc2ccccc12 [CMS-024, 4-isopropoxy-2-(3,4-dihydroxyphenyl) quinoline]",Primary Cortical Cell assay-Glutamate (% protection @ 100 nM),[1],58%
"O=c1cc(-c2ccccc2)oc2cc(O)c(O)c(O)c12 [Baicalein, 5,6,7-trihydroxyflavone, reference compound]",P50 value (clot dose that produces abnormality in 50% of a group),"[2]; 100 mg/kg subcutaneously, 60 minutes following embolization",2.15 ± 0.12 mg
same,improvement of behavior,[2]; [4],effective at improving behavior
same,improvement of behavior,[2]; [5],neither improve behavior
same,therapeutic window in the RSCEM,[2],≥ 60 min
same,cells rescued in excitotoxicity assay,"[1]; E14 mouse cortical neurons, 10 μM glutamate 10 min, 0.2-5 μM, MTT 24 hr",about 35%
same,% protection against glutamate excitotoxicity at 0.1 µM,[1],0%
same,survival of low-density cultured cortical neurons,primary cortical neurons,dramatically promotes the survival
"COc1cc(-c2oc3cc(C)c(C)cc3c(=O)c2O)ccc1OCc1ccccc1 [CMS-059, 2-(4-(benzyloxy)-3-methoxyphenyl)-3-hydroxy-6,7-dimethyl-4H-chromen-4-one]",% protection against glutamate excitotoxicity at 0.1 µM,[1],78%
"COc1cc(-c2oc3cc(C)c(C)cc3c(=O)c2O)ccc1O [CMS-069, 3-hydroxy-2-(4-hydroxy-3-methoxyphenyl)-6,7-dimethyl-4H-chromen-4-one]",Primary Cortical Cell assay-Glutamate (% protection @ 100 nM),[1],86%
"O=c1c(O)c(-c2ccc(O)c(O)c2)oc2cc(O)ccc12 [Fisetin, 3,7,3′,4′-Tetrahydroxyflavone, reference compound]",P50 value (clot dose that produces abnormality in 50% of a group),[2]; [6],2.53 ± 0.55 mg
same,Primary Cortical Cell assay-Glutamate (% protection @ 100 nM),[1],0%
same,EC50,[3],2 to 5 µM
"O=c1c(O)c(-c2ccc(O)c(O)c2)oc2c1ccc1ccccc12 [CMS-040, 2-(3,4-dihydroxyphenyl)-3-hydroxy-4H-benzo[h]chromen-4-one]",% protection against glutamate excitotoxicity at 0.1 µM,[1],86%
"CCOc1cc(-c2ccc(O)c(O)c2)nc2ccccc12 [CMS-023, 4-ethoxy-2-(3,4-dihydroxyphenyl) quinoline]",Primary Cortical Cell assay-Glutamate (% protection @ 100 nM),[1],100%
"O=C(/C=C/c1ccc(O)c(O)c1)O[C@@H]1C[C@](O)(C(=O)O)C[C@@H](O)[C@H]1O [Chlorogenic Acid, 1,3,4,5-tetrahydroxy-cyclohexanecarboxylic acid 3-(3,4-dihydroxycinnamate)]",P50 value (clot dose that produces abnormality in 50% of a group),[2]; [6],3.61 ± 0.52 mg
same,improvement of behavior,[2]; [4],effective at improving behavior
same,improvement of behavior,[2]; [5],neither improve behavior
same,therapeutic window in the RSCEM,[2],60 min
same,% protection against glutamate excitotoxicity at 0.1 µM,[1],0%
